Experimental data published in PubChem BioAssay AID1259407 (Chemical Carcinogenesis Research Information System (CCRIS), 2018).
Active and inactive are the calls of the source. The rule behind the calls is not given here.

Tested on: CCRIS mutagenicity, Ames/micronucleus/aberration tests
Test: CCRIS mutagenicity studies
Details: Test System: AMES SALMONELLA TYPHIMURIUM
[1] = Strain/Indicator: TA100, Metabolic Activation: NONE, Method: PREINCUBATION
[2] = Strain/Indicator: TA98, Metabolic Activation: NONE, Method: STANDARD PLATE
[3] = Strain/Indicator: TA100, Metabolic Activation: NONE, Method: STANDARD PLATE

In the case of `CC(C)CCCCCOC(=O)C[S][Sn]([CH3])([S]CC(=O)OCCCCCC(C)C)[S]CC(=O)OCCCCCC(C)C`, the mutagenic call (Strain/Indicator: TA97, Metabolic Activation: HAMSTER, LIVER, S-9, AROCLOR 1254 (10%), Method: PREINCUBATION) is reported as “inactive; negative”, the mutagenic call (Strain/Indicator: TA97, Metabolic Activation: HAMSTER, LIVER, S-9, AROCLOR 1254 (30%), Method: PREINCUBATION) is reported as “inactive; negative” and the mutagenic call (Strain/Indicator: TA97, Metabolic Activation: NONE, Method: PREINCUBATION) is reported as “inactive; negative”. The mutagenic call (Strain/Indicator: TA97, Metabolic Activation: RAT, LIVER, S-9, AROCLOR 1254 (10%), Method: PREINCUBATION) was “inactive; negative”, the mutagenic call (Strain/Indicator: TA97, Metabolic Activation: RAT, LIVER, S-9, AROCLOR 1254 (30%), Method: PREINCUBATION) was “inactive; negative” and the mutagenic call (Strain/Indicator: TA98, Metabolic Activation: HAMSTER, LIVER, S-9, AROCLOR 1254 (10 OR 30%), Method: PREINCUBATION) was “inactive; negative”. The mutagenic call (Strain/Indicator: TA98, Metabolic Activation: NONE, Method: PREINCUBATION) was “inactive; negative”, the mutagenic call (Strain/Indicator: TA98, Metabolic Activation: RAT, LIVER, S-9, AROCLOR 1254 (10 OR 30%), Method: PREINCUBATION) was “inactive; negative” and the mutagenic call (Strain/Indicator: TA100, Metabolic Activation: HAMSTER, LIVER, S-9, AROCLOR 1254 (10 OR 30%), Method: PREINCUBATION) was “inactive; negative”. The mutagenic call [1] was “inactive; negative”, the mutagenic call (Strain/Indicator: TA100, Metabolic Activation: RAT, LIVER, S-9, AROCLOR 1254 (10 OR 30%), Method: PREINCUBATION) was “inactive; negative” and the mutagenic call (Strain/Indicator: TA1535, Metabolic Activation: HAMSTER, LIVER, S-9, AROCLOR 1254 (10%), Method: PREINCUBATION) was “inactive; negative”. For the same compound, the mutagenic call (Strain/Indicator: TA1535, Metabolic Activation: HAMSTER, LIVER, S-9, AROCLOR 1254 (30%), Method: PREINCUBATION) was “inactive; negative”, the mutagenic call (Strain/Indicator: TA1535, Metabolic Activation: NONE, Method: PREINCUBATION) was “inactive; negative” and the mutagenic call (Strain/Indicator: TA1535, Metabolic Activation: RAT, LIVER, S-9, AROCLOR 1254 (10%), Method: PREINCUBATION) was “inactive; negative”. The mutagenic call (Strain/Indicator: TA1535, Metabolic Activation: RAT, LIVER, S-9, AROCLOR 1254 (30%), Method: PREINCUBATION) was “inactive; negative”, the mutagenic call (Strain/Indicator: TA1537, Metabolic Activation: HAMSTER, LIVER, S-9, AROCLOR 1254 (30%), Method: PREINCUBATION) was “inactive; negative” and the mutagenic call (Strain/Indicator: TA1537, Metabolic Activation: NONE, Method: PREINCUBATION) was “inactive; negative”. The mutagenic call (Strain/Indicator: TA1537, Metabolic Activation: RAT, LIVER, S-9, AROCLOR 1254 (30%), Method: PREINCUBATION) was “inactive; negative”.

In the case of `CCOc1ccc(N=O)cc1`, the mutagenic call [2] is reported as “active; positive”, the mutagenic call (Strain/Indicator: TA98, Metabolic Activation: RAT, LIVER, S-9, AROCLOR 1254, Method: STANDARD PLATE) is reported as “active; positive” and the mutagenic call (Strain/Indicator: TA100(NR), Metabolic Activation: NONE, Method: PREINCUBATION) is reported as “active; positive”. The mutagenic call (Strain/Indicator: TA100(NR), Metabolic Activation: NONE, Method: STANDARD PLATE) was “active; positive”, the mutagenic call (Strain/Indicator: TA100(NR), Metabolic Activation: RAT, LIVER, S-9, AROCLOR 1254, Method: PREINCUBATION) was “active; positive” and the mutagenic call (Strain/Indicator: TA100(NR), Metabolic Activation: RAT, LIVER, S-9, AROCLOR 1254, Method: STANDARD PLATE) was “active; positive”. The mutagenic call (Strain/Indicator: TA100, Metabolic Activation: HAMSTER, LIVER, S-9, KANECHLOR 400, Method: PREINCUBATION) was “active; positive”, the mutagenic call [1] was “active; positive” and the mutagenic call [3] was “active; positive”. The mutagenic call (Strain/Indicator: TA100, Metabolic Activation: RAT, LIVER, S-9, AROCLOR 1254, Method: PREINCUBATION) was “active; positive”, the mutagenic call (Strain/Indicator: TA100, Metabolic Activation: RAT, LIVER, S-9, AROCLOR 1254, Method: STANDARD PLATE) was “active; positive” and the mutagenic call (Strain/Indicator: TA100TN5-1,8-DNP1011, Metabolic Activation: NONE, Method: PREINCUBATION) was “active; positive”. For the same compound, the mutagenic call (Strain/Indicator: TA100TN5-1,8-DNP1011, Metabolic Activation: NONE, Method: STANDARD PLATE) was “active; positive”, the mutagenic call (Strain/Indicator: TA100TN5-1,8-DNP1011, Metabolic Activation: RAT, LIVER, S-9, AROCLOR 1254, Method: PREINCUBATION) was “active; positive” and the mutagenic call (Strain/Indicator: TA100TN5-1,8-DNP1011, Metabolic Activation: RAT, LIVER, S-9, AROCLOR 1254, Method: STANDARD PLATE) was “active; positive”. The mutagenic call (Strain/Indicator: TA100TN5-1,8-DNP1012, Metabolic Activation: NONE, Method: PREINCUBATION) was “active; positive”, the mutagenic call (Strain/Indicator: TA100TN5-1,8-DNP1012, Metabolic Activation: NONE, Method: STANDARD PLATE) was “active; positive” and the mutagenic call (Strain/Indicator: TA100TN5-1,8-DNP1012, Metabolic Activation: RAT, LIVER, S-9, AROCLOR 1254, Method: PREINCUBATION) was “active; positive”. For the same compound, the mutagenic call (Strain/Indicator: TA100TN5-1,8-DNP1012, Metabolic Activation: RAT, LIVER, S-9, AROCLOR 1254, Method: STANDARD PLATE) was “active; positive”.

`C=CCCCCCCCCCCC` was tested, and the mutagenic call (Strain/Indicator: TA98, Metabolic Activation: MOUSE, LIVER, S-9, Method: STANDARD PLATE) was “inactive; negative”, the mutagenic call [2] was “inactive; negative” and the mutagenic call (Strain/Indicator: TA100, Metabolic Activation: MOUSE, LIVER, S-9, Method: STANDARD PLATE) was “inactive; negative”. For the same compound, the mutagenic call [3] was “inactive; negative”, the mutagenic call (Strain/Indicator: TA1535, Metabolic Activation: NONE, Method: STANDARD PLATE) was “inactive; negative” and the mutagenic call (Strain/Indicator: TA1538, Metabolic Activation: NONE, Method: STANDARD PLATE) was “inactive; negative”.
